The record followed here is the NIST ThermoML archive (doi:10.1021/je300683r).

For data set [1] the following is noted: 293.15 K; 101.33 kPa; Liquid; Vibrating tube method.
Data set [2] is described as follows: refractive index (Na D-line) (dimensionless). The settings on record: 293.15 K; 101.33 kPa; Liquid; Standard Abbe refractometry.

± gives the expanded uncertainty stated by the source.

As a reminder, the mass density is mass per unit of volume. As usually defined, the refractive index is a measure of how strongly the sample bends light.

For `CC(C)CCO` [3-methylbutan-1-ol], the mass density in data set [1] is 810.2 ± 1.1 kg/m3. For the same molecule, in data set [2], the refractive index is 1.413 ± 0.0008.
Turning to `O` [water], the mass density in data set [1] is 998.4 ± 1 kg/m3. In data set [2], the refractive index worked out at 1.3328 ± 0.0007.
On the same counts, the results for `CC(C)CO` [2-methyl-1-propanol] are 802 ± 1 kg/m3 and 1.3955 ± 0.0008.
The like results for `CCO` [ethanol] were, in that order, 790 ± 1 kg/m3 and 1.3616 ± 0.0012.
